This is an account of results in US20210361767A1, “RESCUING CANCER PATIENTS FROM RESISTANCE TO TREATMENT WITH INHIBITORS OF PD-1/PD-L1 INTERACTIONS” (Mayo Foundation for Medical Education and Research, priority 2018, published 2021).

What all share (type): cell-based
For assay [1], the system named is Karpas-299 cells. The assay is described as follows: sPD-L1 ELISA of supernatants of Karpas-299 cells treated with protease inhibitors. On the procedure: (§1) Several tumor cell lines were treated with PBS (placebo) or with various protease inhibitors, including matrix metalloprotease inhibitors TAPI-2 and TAPI-0, aspartic protease inhibitor Pepstatin, cysteine protease inhibitor E-64, serine protease inhibitor Aprotinin, combinations of these inhibitors, and an array of other matrix metalloprotease inhibitors. Cell supernatants were queried for sPD-L1 by ELISA as published elsewhere (Frigola et la., supra). In brief, paired mouse IgG2 monoclonal antibodies against extracellular rhB7-H1 were utilized in a capture-detection plate assay using biotinylation and HRP-streptavidin detection. […] Concentrations were determined by optical density measurements along a known standard curve of rhB7-H1. Karpas-299 cells were incubated at 10 MM cells per ml in cell culture media (RPMI plus FBS plus Penicillin/Streptomycin plus buffering reagents) over 24 hours in the presence of 1 μl/100 μl DMSO or PBS (placebo), TAPI-2 at 278 μM, Pepstatin at 206.5 μM, E-64 at 185 μM, or Aprotinin at 220 μM, or a combination of the above materials at various concentrations. […] All statistical analyses were performed using R! software. Two-sided, unpaired Student t tests assessed statistical differences in experimental groups except where otherwise indicated. P values indicate comparison to vehicle control groups. P<0.05 was considered statistically significant.
Subsequent studies were conducted in which Karpas-299 cells were incubated with different matrix metalloprotease inhibitors with varying specificities. For example, Karpas-299 cells were incubated at 10 MM cells per ml in cell culture media over 24 hours in the presence of 1 μl/100 μl DMSO (control), 50 μM TAPI-2, 50 μM TAPI-0, 50 μM GI254023X, 5 μM Ro 32-3555, 5 μM ARP 101, 50 μM UK 370106, 500 pM MMP-9 inhibitor I, 5 μM Doxycycline, or some combination thereof.
Aderbasib is a selective inhibitor of matrix metalloproteases ADAM10 and ADAM17. Karpas-299 cells were incubated at 1 MM-10 MM cells/ml and treated for 24 hours with concentrations of aderbasib ranging from 320 pM to […].
Karpas-299 lymphoma cells producing sB7-H1 were cultured with an array of protease inhibitors. Supernatants from these cultures were isolated and analyzed for sB7H1 concentration by ELISA. Subsequently, activated human CD8+ T cells were cultured with recombinant sB7H1 protein and cell survival was measured at 24 hours. CD8+ T cells also were cultured with sB7H1-rich tumor cell line supernatants versus sB7H1-depleted supernatants over 48 hours in the presence of placebo, low dose (10 nM), or high dose (1 μM) anti-PD-1 antibody pembrolizumab, and cell survival was measured.
Background: In an ELISA, binding on a coated surface is turned into a signal by an enzyme label.

The subject of assay [2] is A786-0 (renal cell carcinoma) cells. Put plainly: sPD-L1 ELISA of supernatants of A786-0 cells treated with protease inhibitors. Conditions: A786-0 grown between 1 MM and 10 MM cells per ml; FIG. 4B. On the procedure: Tumor cells were treated with PBS (placebo) or with various protease inhibitors, including MMP inhibitors TAPI-2 and TAPI-0, aspartic protease inhibitor Pepstatin, cysteine protease inhibitor E-64, serine protease inhibitor Aprotinin, combinations of these inhibitors, and an array of other MMP inhibitors. Cell supernatants were queried for sPD-L1 by ELISA. FIG. 4A, Karpas-299 (lymphoma) cells were treated with the indicated protease inhibitors. FIG. 4B, A786-0 (renal cell carcinoma) cells were treated with the indicated protease inhibitors. FIG. 4C, Dul45 cells were treated with the indicated protease inhibitors. FIG. 4D, Mel-B7H1 (transgenic melanoma) cells were treated with the indicated protease or metalloprotease inhibitors. FIG. 4E is a graph plotting sPD-L1 production induced by interferon treatment or high cell titer in A786-0 cells. Cells grown at 1 MM/ml in control DMSO produced little sPD-L1. […] FIG. 4F is a graph plotting the amount of sPD-L1 in supernatants of Karpas-299 cells treated with control or with varying concentrations of the ADAM10/17 inhibitor aderbasib.
Several tumor cell lines were treated with PBS (placebo) or with various protease inhibitors, including matrix metalloprotease inhibitors TAPI-2 and TAPI-0, aspartic protease inhibitor Pepstatin, cysteine protease inhibitor E-64, serine protease inhibitor Aprotinin, combinations of these inhibitors, and an array of other matrix metalloprotease inhibitors. Cell supernatants were queried for sPD-L1 by ELISA as published elsewhere (Frigola et la., supra). In brief, paired mouse IgG2 monoclonal antibodies against extracellular rhB7-H1 were utilized in a capture-detection plate assay using biotinylation and HRP-streptavidin detection. […] Concentrations were determined by optical density measurements along a known standard curve of rhB7-H1. […] Two-sided, unpaired Student t tests assessed statistical differences in experimental groups except where otherwise indicated. […]

Assay [3] deals with Dul45 prostate cancer cells. The assay is described as follows: sPD-L1 ELISA of supernatants of Dul45 prostate cancer cells. The note with it: FIG. 4C. The procedure:
as §1
Further studies were conducted using different types of cells.

For assay [4], the system named is Mel-B7H1 (transgenic melanoma) cells. The assay is described as follows: sPD-L1 ELISA of supernatants of Mel-B7H1 cells. The note with it: FIG. 4D. On the procedure:
as §1, with “significant. […]” for “significant.”

The test system of assay [5] is PD-L1 mRNA. Put plainly: PD-L1 mRNA expression by RT-PCR in Karpas-299 cells. The note with it: Karpas-299, TAPI-2 at 278 μM, 24 hours; data not shown.
Assay [6] deals with Karpas-299 cells. The assay is described as follows: PD-L1 flow cytometry of Karpas-299 cells. Conditions: vs DMSO, FIGS. 7A, 7B. On the procedure:
(§2) FIGS. 7A and 7B are flow cytometry plots and graphs showing that cell PD-L1 expression is restored by treatment with an inhibitor of ADAM10 and/or ADAM17, and is decreased by treatment with exogenous recombinant ADAM10 or ADAM17. Cells were incubated in the presence of the indicated treatments, and PD-L1 flow cytometry was performed.
For orientation: In flow cytometry, cells or beads pass a laser one at a time.

The test system of assay [7] is A549 cells. The assay is described as follows: PD-L1 flow cytometry of A549 cells. The note with it: vs DMSO, FIGS. 7C, 7D. The procedure: as §2

Turning to `CC(C)C[C@H](CC(=O)NO)C(=O)N[C@H](C(=O)N[C@@H](C)C(=O)NCCN)C(C)(C)C` [TAPI-2], the “Karpas-299 production of sB7H1” value in assay [1] (Example 3, supernatants by ELISA, p<0.0001) is reported as “inhibited”. Also, the “secretion of sPD-L1” value in assay [1] (Karpas-299, 10 MM cells per ml, 24 hours, TAPI-2 at 278 μM, vs DMSO or PBS, FIG. 4A, p=5.6×10^−12) is reported as “reduced the secretion of sPD-L1”. Also, the sPD-L1 secretion result in assay [2] was “significantly reduced”. In assay [3], the “sPD-L1 secretion versus controls” value is reported as “significantly reduced”. For the same molecule, the sPD-L1 expression entry in assay [4] is “most significantly reduced”. For the same molecule, the “PD-L1 mRNA expression (RT-PCR)” value in assay [5] is “without reducing PD-L1 mRNA expression”. Further, the “PD-L1 expression (flow cytometry)” value in assay [6] and in assay [7] was “restored” each time.
